Data as given in ChEMBL document CHEMBL3608277 (ACS Med Chem Lett, 2015).
Calls of active or inactive are those of the source. No cut-off for these calls is given here.

How the values were obtained:
[1] = test system: Human immunodeficiency virus 1; assay: Antiviral activity against HIV1 3B infected in CD4/CXCR4 expressing human MAGI cells incubated for 48 hrs by beta-galactosidase reporter gene assay; format: functional, organism-based; conditions: Human immunodeficiency virus 1, 3B
[2] = test system: Human immunodeficiency virus 1; assay: Antiviral activity against HIV1 BaL infected in CD4/CCR5 expressing human MAGI cells incubated for 48 hrs by beta-galactosidase reporter gene assay; format: functional, organism-based; conditions: Human immunodeficiency virus 1, BaL
[3] = biological target: C-X-C chemokine receptor type 4 (Homo sapiens) (UniProt P61073); assay: Inhibition of CXCR4 in human Jurkat cells assessed as reduction in HIV-Nef-M1-induced mitochondrial membrane depolarization at 0.01 to 100 uM by JC1 dye based fluorescence depolarization assay; format: cell-based
Chain of C-X-C chemokine receptor type 4 (Homo sapiens) (P61073 whole entry): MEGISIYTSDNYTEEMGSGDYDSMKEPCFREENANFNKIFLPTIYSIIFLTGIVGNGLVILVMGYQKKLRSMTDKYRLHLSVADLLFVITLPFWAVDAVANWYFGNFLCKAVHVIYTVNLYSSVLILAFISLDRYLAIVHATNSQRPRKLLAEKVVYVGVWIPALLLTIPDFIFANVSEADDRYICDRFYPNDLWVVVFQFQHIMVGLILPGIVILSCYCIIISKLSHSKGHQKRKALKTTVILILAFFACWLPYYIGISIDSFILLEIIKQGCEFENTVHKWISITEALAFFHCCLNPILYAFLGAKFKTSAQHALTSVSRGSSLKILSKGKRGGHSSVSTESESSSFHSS

[4] = test system: Human immunodeficiency virus; assay: Resistance index, ratio of EC50 for […] HIV containing reverse transcriptase K103N/Y181C mutation to EC50 for wild type HIV; format: functional
[5] = biological target: T1, C-C chemokine receptor type 5 (Homo sapiens, UniProt P51681); assay: Displacement of [125I]-MIP-1beta form CCR5 (unknown origin)
Target sequence in this assay (P51681 whole entry): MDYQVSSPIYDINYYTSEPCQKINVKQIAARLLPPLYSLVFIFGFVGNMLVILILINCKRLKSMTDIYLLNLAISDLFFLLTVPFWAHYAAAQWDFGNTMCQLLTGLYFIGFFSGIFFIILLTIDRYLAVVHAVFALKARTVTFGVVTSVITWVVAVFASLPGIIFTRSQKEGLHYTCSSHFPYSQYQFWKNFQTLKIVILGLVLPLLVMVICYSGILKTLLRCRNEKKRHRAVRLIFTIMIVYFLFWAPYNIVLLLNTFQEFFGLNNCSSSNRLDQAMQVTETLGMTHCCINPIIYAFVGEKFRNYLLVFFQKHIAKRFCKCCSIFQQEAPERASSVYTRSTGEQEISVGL

[6] = Toxicity against human HeLa67 cells; format: cell-based
[7] = Toxicity against human MAGI cells incubated for 48 hrs by MTS assay; format: cell-based; conditions: read-out: TC50
[8] = biological target: C-X-C chemokine receptor type 4 (Homo sapiens) (UniProt P61073); assay: Displacement of [125I]-SDF1 form CXCR4 (unknown origin) at 1 mM
[9] = test system: Human immunodeficiency virus 1; assay: Antiviral activity against HIV1 3B infected in CD4/CXCR4 expressing human PBMC cells by reverse transcriptase activity and/or p24 antigen content detection based assay; format: functional, organism-based; conditions: Human immunodeficiency virus 1, 3B
[10] = test system: Human immunodeficiency virus 2; assay: Antiviral activity against HIV2 CDC310319 infected in human PBMC cells; format: functional, organism-based; conditions: Human immunodeficiency virus 2, CDC310319, PBMC
[11] = test system: Human immunodeficiency virus; assay: Antiviral activity against NNRTI-resistant HIV containing reverse transcriptase K103N/Y181C mutation; format: functional, organism-based; conditions: Human immunodeficiency virus 1
[12] = Toxicity against HEK293 cells derived ACTOne-X4 cells; format: cell-based; conditions: human
[13] = biological target: T1, C-C chemokine receptor type 5; assay: Displacement of [125I]-MIP-1beta form CCR5 (unknown origin) at 100 uM
Target sequence in this assay (P51681 whole entry, looked up): as the sequence (P51681 whole entry) above

[14] = test system: Human immunodeficiency virus 1; assay: Antiviral activity against HIV1 BaL infected in CD4/CCR5 expressing human PBMC cells by reverse transcriptase activity and/or p24 antigen content detection based assay; format: functional, organism-based; conditions: Human immunodeficiency virus 1, BaL
[15] = Toxicity against human PBMC by MTS assay; format: cell-based; conditions: read-out: TC50 (the source's name)
[16] = Inhibition of HIV pNL4-3 heterodimeric reverse transcriptase p66/p51 incubated at 37 degC for 1 hr by scintillation counting method; set-up: species or system Human immunodeficiency virus
[17] = test system: Human immunodeficiency virus; assay: Antiviral activity against wild type HIV; format: functional, organism-based; conditions: Human immunodeficiency virus 1
[18] = biological target: T1, C-C chemokine receptor type 5; assay: Displacement of [125I]-MIP-1beta form CCR5 (unknown origin) at 1 mM
Target sequence in this assay (P51681 whole entry, looked up): as the sequence (P51681 whole entry) above

Row | SMILES | IC50 [1] | IC50 [2] | other results
1 | Cc1cn([C@H]2C[C@H](N=[N+]=[N-])[C@@H](CO)O2)c(=O)[nH]c1=O |  |  | inhibition [3]: inactive
2 | O=C1Nc2ccc(Cl)cc2[C@@](C#CC2CC2)(C(F)(F)F)O1 [EFAVIRENZ] |  |  | Ratio EC50 [4]: 70
3 | COc1ncc(CN2CCC(c3[nH]ncc3Cc3ccccc3)CC2)cn1 | > 200 µM | 72 µM | IC50 [5]: 70 µM
4 | Nc1ncc(N2CCC(c3[nH]ncc3Cc3ccccc3)CC2)cn1 | 105 µM | 95 µM | 
5 | CCc1cc(CN2CCC(c3[nH]ncc3Cc3ccccc3)CC2)[nH]n1 | 68 µM | 60 µM | 
6 | c1ccc(Cc2cn[nH]c2C2CCN(Cc3cccnc3)CC2)cc1 | 5.8 µM | 16 µM | 
7 | c1cc(CN2CCCNCCNCCCNCC2)ccc1CN1CCCNCCNCCCNCC1 |  |  | inhibition [3]: Active
8 | Cc1ccc(-c2ccc3c(c2)C=C(C(=O)Nc2ccc(C[N+](C)(C)C4CCOCC4)cc2)CCC3)cc1.[Cl-] |  |  | Activity [6]: Toxic
9 | Cc1nnc(C(C)C)n1[C@H]1C[C@H]2CC[C@@H](C1)N2CC[C@H](NC(=O)C1CCC(F)(F)CC1)c1ccccc1 |  |  | inhibition [3]: inactive
10 | c1ccc(-c2cn[nH]c2C2CCN(Cc3cccnc3)CC2)cc1 | 44 µM | 64 µM | 
11 | c1ccc(Cc2cn[nH]c2C2CCN(Cc3ccncc3)CC2)cc1 | 0.8 µM | 3.8 µM | CC50 at 48 h [7]: > 300 µM; inhibition [8]: 0%; IC50 [9]: 2.3 µM; IC50 [10]: 31 µM; EC50 [11]: 19 µM; CC50 [12]: > 200 µM; inhibition [13]: 38%; IC50 [14]: 2.3 µM; CC50 [15]: > 100 µM; IC50 [16]: 9 µM; EC50 [17]: 0.9 µM; inhibition [18]: 88%

Further lines, with some results ahead:

Row | IC50 [1] | IC50 [2] | SMILES | other results
12 | 13 µM | 17 µM | Nc1cc(CN2CCC(c3[nH]ncc3Cc3ccccc3)CC2)ncn1 | 
13 | 25 µM | 17 µM | c1ccc(Cc2cn[nH]c2C2CCN(Cc3ccccn3)CC2)cc1 | 
14 | 57 µM | 66 µM | CCc1nccc(CN2CCC(c3[nH]ncc3Cc3ccccc3)CC2)n1 | 
15 | 81 µM | 83 µM | Nc1ccnc(CN2CCC(c3[nH]ncc3Cc3ccccc3)CC2)n1 | 
16 | 6.4 µM | 13 µM | CC(C)c1nccc(CN2CCC(c3[nH]ncc3Cc3ccccc3)CC2)n1 | 
